From the supplement of paper PMC13380429

What was measured:
Vero E6 [1] = experiment: cell viability relative to DMSO; higher = less toxic; details: 72 h
Calu-3 [2] = experiment: as above; details: 72 h
HepG2 [3] = experiment: as above; details: 72 h
Caco-2 [4] = experiment: as above; details: 72 h
Vero E6 [5] = experiment: relative viability EC50 (midpoint between 100% and the lowest measured viability); higher = less toxic; details: 72 h
Calu-3 [6] = experiment: as above; details: 72 h
Caco-2 [7] = experiment: as above; details: 72 h
Vero E6 [8] = experiment: drug sensitivity score (DSS) for viability; higher = more toxic; extreme values may be limits of the assay; details: 72 h
Calu-3 [9] = experiment: as above; details: 72 h
HepG2 [10] = experiment: as above; details: 72 h
Caco-2 [11] = experiment: as above; details: 72 h
[12] = system: A549-ACE2 infected with SARS-CoV-2; experiment: SARS-CoV-2 infection rate relative to DMSO; higher = more infection; details: 24 h
A549-ACE2 [13] = experiment: drug-induced phospholipidosis relative to tamoxifen; higher = more phospholipidosis
A549-ACE2 [14] = experiment: phospholipidosis EC50; higher = less potent phospholipidosis inducer
[15] = system: A549-ACE2 infected with SARS-CoV-2; experiment: cell count relative to DMSO; higher = less toxic; details: 24 h
[16] = system: A549-ACE2 infected with SARS-CoV-2; experiment: morphology score (similarity to uninfected cells); higher = more like uninfected cells; details: 24 h
HepG2 [17] = experiment: relative viability EC50 (midpoint between 100% and the lowest measured viability); higher = less toxic; details: 72 h
U2OS [18] = experiment: cell viability relative to DMSO; higher = less toxic; details: 72 h
U2OS [19] = experiment: relative viability EC50 (midpoint between 100% and the lowest measured viability); higher = less toxic; details: 72 h
U2OS [20] = experiment: drug sensitivity score (DSS) for viability; higher = more toxic; extreme values may be limits of the assay; details: 72 h

Nc1ccc(C(=O)Nc2cccc(-c3nc(N4CCOCC4)c4oc5ncccc5c4n3)c2)cn1
cell viability (Vero E6 [1]; 1 nM): 99.9%
cell viability (Vero E6 [1]; 10 nM): 100%
cell viability (Vero E6 [1]; 100 nM): 96.4%
cell viability (Vero E6 [1]; 1000 nM): 95.9%
cell viability (Vero E6 [1]; 10000 nM): 91.9%
cell viability (Calu-3 [2]; 1 nM): 101%
cell viability (Calu-3 [2]; 10 nM): 96.1%
cell viability (Calu-3 [2]; 100 nM): 100%
cell viability (Calu-3 [2]; 1000 nM): 96.5%
cell viability (Calu-3 [2]; 10000 nM): 94.8%
cell viability (HepG2 [3]; 1 nM): 109%
cell viability (HepG2 [3]; 10 nM): 99.6%
cell viability (HepG2 [3]; 100 nM): 88.3%
cell viability (HepG2 [3]; 1000 nM): 50.5%
cell viability (HepG2 [3]; 10000 nM): 61.6%
cell viability (Caco-2 [4]; 1 nM): 95.4%
cell viability (Caco-2 [4]; 10 nM): 97%
cell viability (Caco-2 [4]; 100 nM): 101%
cell viability (Caco-2 [4]; 1000 nM): 87.1%
cell viability (Caco-2 [4]; 10000 nM): 80%
relative viability EC50 (Vero E6 [5]): > 10 µM
relative viability EC50 (Calu-3 [6]): > 10 µM
relative viability EC50 (Caco-2 [7]): > 10 µM
drug sensitivity score (Vero E6 [8]): 0
drug sensitivity score (Calu-3 [9]): 0
drug sensitivity score (HepG2 [10]): 10.9
drug sensitivity score (Caco-2 [11]): 1.8
SARS-CoV-2 infection rate ([12]; 0.3 µM): 90%
SARS-CoV-2 infection rate ([12]; 3 µM): 47%
SARS-CoV-2 infection rate ([12]; 10 µM): 63%
SARS-CoV-2 infection rate ([12]; 30 µM): 110%
drug-induced phospholipidosis (A549-ACE2 [13]; 0.3 µM, 24 h): 4.2%
drug-induced phospholipidosis (A549-ACE2 [13]; 0.3 µM, 48 h): 8.45%
drug-induced phospholipidosis (A549-ACE2 [13]; 0.3 µM, 72 h): 8%
drug-induced phospholipidosis (A549-ACE2 [13]; 0.833333 µM, 24 h): 16.4%
drug-induced phospholipidosis (A549-ACE2 [13]; 0.833333 µM, 48 h): 22.8%
drug-induced phospholipidosis (A549-ACE2 [13]; 0.833333 µM, 72 h): 24.5%
drug-induced phospholipidosis (A549-ACE2 [13]; 3.33333 µM, 24 h): 72%
drug-induced phospholipidosis (A549-ACE2 [13]; 3.33333 µM, 48 h): 79.6%
drug-induced phospholipidosis (A549-ACE2 [13]; 3.33333 µM, 72 h): 107%
drug-induced phospholipidosis (A549-ACE2 [13]; 6.66667 µM, 24 h): 146%
drug-induced phospholipidosis (A549-ACE2 [13]; 6.66667 µM, 48 h): 121%
drug-induced phospholipidosis (A549-ACE2 [13]; 6.66667 µM, 72 h): 162%
drug-induced phospholipidosis (A549-ACE2 [13]; 10 µM, 24 h): 132%
drug-induced phospholipidosis (A549-ACE2 [13]; 10 µM, 48 h): 135%
drug-induced phospholipidosis (A549-ACE2 [13]; 30 µM, 24 h): 202%
drug-induced phospholipidosis (A549-ACE2 [13]; 30 µM, 48 h): 188%
drug-induced phospholipidosis (A549-ACE2 [13]; 30 µM, 72 h): 231%
phospholipidosis EC50 (A549-ACE2 [14]; 24 h): 6.01 µM
phospholipidosis EC50 (A549-ACE2 [14]; 48 h): 7.56 µM
phospholipidosis EC50 (A549-ACE2 [14]; 72 h): 4.36 µM
cell count ([15]; 0.3 µM): 100%
cell count ([15]; 3 µM): 102%
cell count ([15]; 10 µM): 101%
cell count ([15]; 30 µM): 78%
morphology score ([16]; 0.3 µM): 0.31
morphology score ([16]; 3 µM): 0.45
morphology score ([16]; 10 µM): 0.08
morphology score ([16]; 30 µM): -0.12

O=c1oc(-c2ccc(C(F)(F)F)cc2)nn1Cc1cc(Cl)ccc1O
cell viability (HepG2 [3]; 1 nM): 105%
cell viability (HepG2 [3]; 10 nM): 107%
cell viability (HepG2 [3]; 100 nM): 99.7%
cell viability (HepG2 [3]; 1000 nM): 99.2%
cell viability (HepG2 [3]; 10000 nM): 97.3%
cell viability (Caco-2 [4]; 1 nM): 109%
cell viability (Caco-2 [4]; 10 nM): 94.7%
cell viability (Caco-2 [4]; 100 nM): 101%
cell viability (Caco-2 [4]; 1000 nM): 99.2%
cell viability (Caco-2 [4]; 10000 nM): 92.6%
relative viability EC50 (HepG2 [17]): > 10 µM
relative viability EC50 (Caco-2 [7]): > 10 µM
drug sensitivity score (HepG2 [10]): 0
drug sensitivity score (Caco-2 [11]): 0
SARS-CoV-2 infection rate ([12]; 0.3 µM): 84%
SARS-CoV-2 infection rate ([12]; 3 µM): 102%
SARS-CoV-2 infection rate ([12]; 10 µM): 99%
SARS-CoV-2 infection rate ([12]; 30 µM): 68%
drug-induced phospholipidosis (A549-ACE2 [13]; 0.3 µM, 24 h): -1%
drug-induced phospholipidosis (A549-ACE2 [13]; 0.3 µM, 48 h): 3.5%
drug-induced phospholipidosis (A549-ACE2 [13]; 0.3 µM, 72 h): 4.07%
drug-induced phospholipidosis (A549-ACE2 [13]; 0.833333 µM, 24 h): -1.2%
drug-induced phospholipidosis (A549-ACE2 [13]; 0.833333 µM, 48 h): -0.73%
drug-induced phospholipidosis (A549-ACE2 [13]; 0.833333 µM, 72 h): 0.196%
drug-induced phospholipidosis (A549-ACE2 [13]; 3.33333 µM, 24 h): -2.36%
drug-induced phospholipidosis (A549-ACE2 [13]; 3.33333 µM, 48 h): 0.6%
drug-induced phospholipidosis (A549-ACE2 [13]; 3.33333 µM, 72 h): 1.24%
drug-induced phospholipidosis (A549-ACE2 [13]; 6.66667 µM, 24 h): -1.21%
drug-induced phospholipidosis (A549-ACE2 [13]; 6.66667 µM, 48 h): 1.96%
drug-induced phospholipidosis (A549-ACE2 [13]; 6.66667 µM, 72 h): 1.18%
drug-induced phospholipidosis (A549-ACE2 [13]; 10 µM, 24 h): 0.96%
drug-induced phospholipidosis (A549-ACE2 [13]; 10 µM, 48 h): 2.52%
drug-induced phospholipidosis (A549-ACE2 [13]; 10 µM, 72 h): 2.49%
drug-induced phospholipidosis (A549-ACE2 [13]; 30 µM, 24 h): 6.42%
drug-induced phospholipidosis (A549-ACE2 [13]; 30 µM, 48 h): 8.32%
drug-induced phospholipidosis (A549-ACE2 [13]; 30 µM, 72 h): 10.1%
cell count ([15]; 0.3 µM): 101%
cell count ([15]; 3 µM): 102%
cell count ([15]; 10 µM): 80%
cell count ([15]; 30 µM): 65%
morphology score ([16]; 0.3 µM): 0.38
morphology score ([16]; 3 µM): -0.01
morphology score ([16]; 10 µM): 0.05
morphology score ([16]; 30 µM): 0.43

O=[N+]([O-])/C=C/c1ccc2c(c1)OCO2 [3,4-methylenedioxy-beta-nitrostyrene]
cell viability (Vero E6 [1]; 1 nM): 103%
cell viability (Vero E6 [1]; 10 nM): 101%
cell viability (Vero E6 [1]; 100 nM): 99.9%
cell viability (Vero E6 [1]; 1000 nM): 96.9%
cell viability (Vero E6 [1]; 10000 nM): 84.3%
cell viability (U2OS [18]; 1 nM): 99.2%
cell viability (U2OS [18]; 10 nM): 97.5%
cell viability (U2OS [18]; 100 nM): 97.1%
cell viability (U2OS [18]; 1000 nM): 100%
cell viability (U2OS [18]; 10000 nM): 43.7%
cell viability (Calu-3 [2]; 1 nM): 101%
cell viability (Calu-3 [2]; 10 nM): 105%
cell viability (Calu-3 [2]; 100 nM): 101%
cell viability (Calu-3 [2]; 1000 nM): 100%
cell viability (Calu-3 [2]; 10000 nM): 95.5%
cell viability (HepG2 [3]; 1 nM): 115%
cell viability (HepG2 [3]; 10 nM): 97.9%
cell viability (HepG2 [3]; 100 nM): 101%
cell viability (HepG2 [3]; 1000 nM): 95.9%
cell viability (HepG2 [3]; 10000 nM): 91.3%
cell viability (Caco-2 [4]; 1 nM): 94.9%
cell viability (Caco-2 [4]; 10 nM): 107%
cell viability (Caco-2 [4]; 100 nM): 93.8%
cell viability (Caco-2 [4]; 1000 nM): 104%
cell viability (Caco-2 [4]; 10000 nM): 72.3%
relative viability EC50 (Vero E6 [5]): > 10 µM
relative viability EC50 (U2OS [19]): 3.2 µM
relative viability EC50 (Calu-3 [6]): > 10 µM
relative viability EC50 (HepG2 [17]): > 10 µM
drug sensitivity score (Vero E6 [8]): 0.6
drug sensitivity score (U2OS [20]): 3
drug sensitivity score (Calu-3 [9]): 0
drug sensitivity score (HepG2 [10]): 0
drug sensitivity score (Caco-2 [11]): 0.9
SARS-CoV-2 infection rate ([12]; 0.3 µM): 95%
SARS-CoV-2 infection rate ([12]; 3 µM): 107%
SARS-CoV-2 infection rate ([12]; 10 µM): 39%
SARS-CoV-2 infection rate ([12]; 30 µM): 36%
drug-induced phospholipidosis (A549-ACE2 [13]; 0.3 µM, 24 h): 1.47%
drug-induced phospholipidosis (A549-ACE2 [13]; 0.3 µM, 48 h): -0.23%
drug-induced phospholipidosis (A549-ACE2 [13]; 0.3 µM, 72 h): -0.171%
drug-induced phospholipidosis (A549-ACE2 [13]; 0.833333 µM, 24 h): -0.82%
drug-induced phospholipidosis (A549-ACE2 [13]; 0.833333 µM, 48 h): -2.22%
drug-induced phospholipidosis (A549-ACE2 [13]; 0.833333 µM, 72 h): -1.69%
drug-induced phospholipidosis (A549-ACE2 [13]; 3.33333 µM, 24 h): 0.27%
drug-induced phospholipidosis (A549-ACE2 [13]; 3.33333 µM, 48 h): -2.44%
drug-induced phospholipidosis (A549-ACE2 [13]; 3.33333 µM, 72 h): -1.41%
drug-induced phospholipidosis (A549-ACE2 [13]; 6.66667 µM, 24 h): 3.08%
drug-induced phospholipidosis (A549-ACE2 [13]; 6.66667 µM, 48 h): -0.19%
drug-induced phospholipidosis (A549-ACE2 [13]; 6.66667 µM, 72 h): -0.796%
drug-induced phospholipidosis (A549-ACE2 [13]; 30 µM, 24 h): -3.87%
cell count ([15]; 0.3 µM): 106%
cell count ([15]; 3 µM): 97%
cell count ([15]; 10 µM): 49%
cell count ([15]; 30 µM): 16%
morphology score ([16]; 0.3 µM): 0.14
morphology score ([16]; 3 µM): 0.21
morphology score ([16]; 10 µM): 0.48
morphology score ([16]; 30 µM): 0.16
